The values that follow come from US12139481B2, “Compositions comprising macrocycle derivatives incorporating bridged macrocycles and methods of producing and using same” (Southwestern Oklahoma State University, priority 2015, dated 2024).

In assay [1] the test system is Cryptococcus neoformans ATCC 90113. Put plainly: Antimicrobial microdilution assay against Cryptococcus neoformans (modified CLSI/NCCLS, optical density). In kind it is cell-based. The note with it: for X more potent than Amphotericin B: C. neoformans, ratio of molar IC50 to Amphotericin B; for C. neoformans IC50 / IC50: in vitro, C. neoformans ATCC 90113; for IC50: read-out: C. neoformans IC50 (mol/L). A digest of the protocol: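 Broth microdilution (modified CLSI) in RPMI pH 6.0, samples serially diluted in 20% DMSO/saline and tested in duplicate, growth followed by OD630 before and after incubation. MFC is the lowest concentration giving no growth when 5 μL from clear wells is plated on agar.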

The subject of assay [2] is L. donovani promastigotes. The assay is described as follows: Antileishmanial Alamar Blue assay on promastigotes. In kind it is cell-based, Leishmania donovani. The note with it: for X more potent than Pentamidine: L. donovani, ratio of molar IC50 to Pentamidine; for L. donovani IC50 / IC50: promastigotes, 48 hours, Alamar Blue; for IC50: read-out: L. donavani IC50. Put shortly:
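L. donovani promastigotes in RPMI 1640 with 10% FCS, from 3-day culture, were set at 5×10^5/mL and exposed to compound (50-3.1 μg/mL) for 48 hours at 26° C. Growth read by Alamar Blue fluorescence (ex 544/em 590 nm); IC50 from percent growth versus concentration.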

Assay [3] relates to Plasmodium falciparum D6 clone (Sierra Leon, chloroquine-sensitive). Put plainly: In vitro antimalarial assay, chloroquine-sensitive D6 clone. The note with it: for X more potent than chloroquine: molar IC50 ratio versus chloroquine. In kind it is cell-based. How it is done:
(§1) The compounds were assayed for in vitro antimalarial activity against the W2 clone and D6 clone of the pathogenic Plasmodium falciparum. The strains of P. falciparum were obtained from the Division of Experimental Therapeutics, Walter Reed Army Institute of Research, Washington D.C. Strains of Sierra Leon D6 and Indochina W2 are chloroquine-sensitive and chloroquine-resistant, respectively. The parasite was grown in type A human RBCs and, two strains subcultured daily with fresh medium and blood cells. On the day of the assay, a suspension of infected blood cells (2% parasitemia and 2% hematocrit) was prepared using type A human red blood cells. Assays were performed by standard 96-well flat-bottomed microplate methods and done in duplicate at different concentrations. IC50 values were obtained from the dose curves. Artemisinin and chloroquine were included in each assay as the drug controls, and DMSO was used as vehicle control. The whole protocol was developed based on the published method of Makler. The cytotoxicity assays were also performed in parallel against the Vero cells, and the selectivity index was measured. A selectivity index of >9 was considered to indicate a lead for further development of antimalarial drug.

For assay [4], the system named is Plasmodium falciparum W2 clone (Indochina, chloroquine-resistant). The assay is described as follows: In vitro antimalarial assay, chloroquine-resistant W2 clone. In kind it is cell-based. The note with it: for X more potent than chloroquine: molar IC50 ratio versus chloroquine. How it is done: as §1
Where [5] appears, read: D6 clone, converted with molecular weight, read-out: P. falciparum D6 IC50.
Setting [6] is: W2 clone, converted with molecular weight, read-out: P. falciparum W2 IC50.

Read-outs that look alike come from different tables or passages of the source.

Regarding m-CB-homocyclens HCl salt [OB65B], in assay [1], the “X more potent than Amphotericin B” value was 1.47, the “C. neoformans IC50” value was 0.160 µg/mL and the IC50 was found to be 162 nM. For the same molecule, in assay [2], the “X more potent than Pentamidine” value stood at 0.48, the “L. donovani IC50” value is 11.08 µg/mL and the IC50 was 11200 nM. Further, in assay [3] (D6 clone), the “P. falciparum D6 IC50” value was 0.2921 µg/mL and the “X more potent than chloroquine” value was 0.12. Further, the IC50 in assay [3] (setting [5]) is 295 nM. Also, in assay [4] (W2 clone), the “P. falciparum W2 IC50” value came to 0.3783 µg/mL and the “X more potent than chloroquine” value is 1.78. The IC50 in assay [4] (setting [6]) stood at 382 nM.
Turning to `CN1CCN(c2ccnc3cc(Cl)ccc23)CCN(C)CCN(c2ccnc3cc(Cl)ccc23)CC1` [K-PAA-0012-P28], in assay [3] (D6 clone), the “P. falciparum D6 IC50” value came out at 0.1169 µg/mL and the “X more potent than chloroquine” value is 0.16. Moreover, the IC50 in assay [3] (setting [5]) worked out at 223 nM. Further, in assay [4] (W2 clone), the “P. falciparum W2 IC50” value came to 0.1992 µg/mL and the “X more potent than chloroquine” value turned out to be 1.78. For the same molecule, in assay [4] (setting [6]), the IC50 came to 380 nM.
As for `Clc1ccc2c(N3CCCNCCCNCCNCCC3)ccnc2c1` [K-JDD-0011-P36], in assay [3] (D6 clone), the “P. falciparum D6 IC50” value was found to be 0.0203 µg/mL and the “X more potent than chloroquine” value is 0.68. Moreover, the IC50 in assay [3] (setting [5]) is 54 nM. For the same molecule, in assay [4] (W2 clone), the “P. falciparum W2 IC50” value was 0.5279 µg/mL and the “X more potent than chloroquine” value amounted to 0.48. Moreover, the IC50 in assay [4] (setting [6]) came to 1400 nM.
Take `CC(=O)[O-].F[P-](F)(F)(F)(F)F.O.[Ni+2].c1ccc(CN2CCCNCCN(Cc3ccccc3)CCCNCC2)cc1` [BME06, [Ni(Bn2Cyclam)(OAc)]PF6•H2O]: in assay [1], the “X more potent than Amphotericin B” value is 0.01, the “C. neoformans IC50” value came out at 17.990 µg/mL and the IC50 is 27200 nM. For the same molecule, in assay [2], the “X more potent than Pentamidine” value came out at 0.13, the “L. donovani IC50” value was 26.25 µg/mL and the IC50 came to 39700 nM. In addition, in assay [3] (D6 clone), the “P. falciparum D6 IC50” value was 0.7495 µg/mL and the “X more potent than chloroquine” value is on record as 0.03. Besides, the IC50 in assay [3] (setting [5]) turned out to be 1130 nM. In assay [4] (W2 clone), the “P. falciparum W2 IC50” value came out at 1.7132 µg/mL and the “X more potent than chloroquine” value was 0.26. Besides, the IC50 in assay [4] (setting [6]) came out at 2590 nM.
For the molecule p-CB-cyclens HCl salt [OB15B], in assay [1], the “X more potent than Amphotericin B” value is recorded as 0.34, the “C. neoformans IC50” value turned out to be 0.610 µg/mL and the IC50 amounted to 699 nM. Further, in assay [2], the “X more potent than Pentamidine” value was 0.22, the “L. donovani IC50” value turned out to be 20.94 µg/mL and the IC50 turned out to be 24000 nM. Besides, in assay [3] (D6 clone), the “P. falciparum D6 IC50” value came out at 0.5799 µg/mL and the “X more potent than chloroquine” value stood at 0.03. In addition, the IC50 in assay [3] (setting [5]) came out at 1100 nM. In assay [4] (W2 clone), the “P. falciparum W2 IC50” value amounted to 0.6558 µg/mL and the “X more potent than chloroquine” value stood at 0.54. Moreover, the IC50 in assay [4] (setting [6]) was determined as 1240 nM.
As to `Clc1ccc2c(N3CCNCCN(c4ccnc5cc(Cl)ccc45)CCNCC3)ccnc2c1.[Cl-].[Cl-].[Mn+2]` [K-PAA2-0004-P8], in assay [3] (D6 clone), the “P. falciparum D6 IC50” value was 0.0750 µg/mL and the “X more potent than chloroquine” value is 0.30. The IC50 in assay [3] (setting [5]) turned out to be 120 nM. Also, in assay [4] (W2 clone), the “P. falciparum W2 IC50” value came out at 0.0875 µg/mL and the “X more potent than chloroquine” value is reported as 4.82. Also, the IC50 in assay [4] (setting [6]) was 141 nM.
Regarding `Clc1ccc2c(N3CCNCCN(c4ccnc5cc(Cl)ccc45)CCNCC3)ccnc2c1.O.O.[Fe+3].[O-][Cl+3]([O-])([O-])[O-].[O-][Cl+3]([O-])([O-])[O-].[O-][Cl+3]([O-])([O-])[O-]` [K-PAA-0016-P36, Fe-complex-4,10-bis(7-chloroquinoline)cyclen)Cl2], in assay [1], the “X more potent than Amphotericin B” value came to 0.22, the “C. neoformans IC50” value came out at 0.940 µg/mL and the IC50 came to 1060 nM. Further, in assay [3] (D6 clone), the “P. falciparum D6 IC50” value was found to be 0.0196 µg/mL and the “X more potent than chloroquine” value is reported as 1.65. In assay [3] (setting [5]), the IC50 came out at 22.1 nM. In assay [4] (W2 clone), the “P. falciparum W2 IC50” value came to 0.0336 µg/mL and the “X more potent than chloroquine” value came to 17.88. In addition, in assay [4] (setting [6]), the IC50 was determined as 37.9 nM. Besides, in assay [4] (chloroquine-resistant P. falciparum (W2 strain)), the “times more potent than chloroquine” value was around 18.
`CCN(CC)CCCC(C)Nc1ccnc2cc(Cl)ccc12` (stereo not shown) [CQ]: the “X more potent than chloroquine” value in assay [3] (D6 clone) and in assay [4] (W2 clone) was 1.00 each time. For the same molecule, the IC50 turned out to be 36.6 nM in assay [3] (Plasmodium falciparum, D6, read-out: P. falciparum D6 IC50 (mol/L)); 0.0117 µg/mL in assay [3] (Plasmodium falciparum, D6, read-out: P. falciparum D6 IC50 (μg/mL)); 678 nM in assay [4] (Plasmodium falciparum, W2, read-out: P. falciparum W2 IC50 (mol/L)); 0.217 µg/mL in assay [4] (Plasmodium falciparum, W2, read-out: P. falciparum W2 IC50 (μg/mL)).
Take p-CB-homocyclens HCl salt [TA22C]: in assay [1], the “X more potent than Amphotericin B” value worked out at 0.71, the “C. neoformans IC50” value is 0.310 µg/mL and the IC50 was 334 nM. Moreover, in assay [2], the “X more potent than Pentamidine” value stood at 0.30, the “L. donovani IC50” value worked out at 16.31 µg/mL and the IC50 was 17600 nM. Besides, in assay [3] (D6 clone), the “P. falciparum D6 IC50” value was determined as 0.2596 µg/mL and the “X more potent than chloroquine” value is 0.12. For the same molecule, in assay [3] (setting [5]), the IC50 stood at 308 nM. For the same molecule, in assay [4] (W2 clone), the “P. falciparum W2 IC50” value was determined as 0.3189 µg/mL and the “X more potent than chloroquine” value is 1.79. The IC50 in assay [4] (setting [6]) stood at 379 nM.
